Where two headings read alike, the source gives them in different places. Numbered stars: 1 amine (or outer) side, 2 acyl side, 3 side chain; on linkers, the order of the positions; unused ones are H or OH. Ends that are not written are not given here. Peptide text beside a SMILES is read from it. Cysteamide = C(CS[*:3])N[*:1]
Key:
HS-68 and Hela cells = assay: Toxicity of CADY variants, MTT cell viability assay (Table 1); type: cell-based; conditions: for toxicity: at concentration of 100 µM
Description: The toxicity of CADY peptides has been investigated on different cell lines. Cells were incubated in the presence of increasing concentrations of CADY (from 0.1 µM to 1 mM) for 12 hrs and cell viability was estimated using MTT assay.

[1] = molecular target: short 17-residues peptide (cargo used with CADY-2); assay: steady state Trp fluorescence quenching; fixed CADY (0.1 uM) titrated with cargo peptide; quadratic fit
[2] = free peptide, MTT, read-out: free EC50

Row | Molecule | EC50 (HS-68 and Hela cells; [2]) [µM] | further results
1 | CC(C)C[C@H](NC(=O)CN)C(=O)N[C@@H](Cc1c[nH]c2ccccc12)C(=O)N[C@@H](CCCNC(=N)N)C(=O)N[C@@H](C)C(=O)N[C@@H](CC(C)C)C(=O)N[C@@H](Cc1c[nH]c2ccccc12)C(=O)N[C@@H](CCCNC(=N)N)C(=O)N[C@@H](C)C(=O)N[C@@H](CC(C)C)C(=O)N[C@@H](Cc1c[nH]c2ccccc12)C(=O)N[C@@H](CCCNC(=N)N)C(=O)N[C@@H](CO)C(=O)N[C@@H](CC(C)C)C(=O)N[C@@H](Cc1c[nH]c2ccccc12)C(=O)N[C@@H](CCCCN)C(=O)N[C@@H](CC(C)C)C(=O)N[C@@H](CCCCN)C(=O)N[C@@H](CCCNC(=N)N)C(=O)N[C@@H](CCCCN)C(=O)N[C@H](C(=O)NCCS)C(C)C [CADY-1b] (HELM PEPTIDE1{G.L.W.R.A.L.W.R.A.L.W.R.S.L.W.K.L.K.R.K.V.[SCCN[*:1]]}$$$$V2.0) | 500 | EC50 (HS-68 and Hela cells; free peptide, MTT, listed as CADY-2d, read-out: free EC50): 380 µM
2 | CC(C)C[C@H](NC(=O)CN)C(=O)N[C@@H](Cc1c[nH]c2ccccc12)C(=O)N[C@@H](CCCNC(=N)N)C(=O)N[C@@H](C)C(=O)N[C@@H](CC(C)C)C(=O)N[C@@H](Cc1c[nH]c2ccccc12)C(=O)N[C@@H](CCCNC(=N)N)C(=O)N[C@@H](C)C(=O)N[C@@H](CC(C)C)C(=O)N[C@@H](CCCNC(=N)N)C(=O)N[C@@H](CO)C(=O)N[C@@H](CC(C)C)C(=O)N[C@@H](Cc1c[nH]c2ccccc12)C(=O)N[C@@H](CCCCN)C(=O)N[C@@H](CC(C)C)C(=O)N[C@@H](CCCCN)C(=O)N[C@@H](CCCNC(=N)N)C(=O)N[C@@H](CCCCN)C(=O)N[C@H](C(=O)NCCS)C(C)C [CADY-1c] (HELM PEPTIDE1{G.L.W.R.A.L.W.R.A.L.R.S.L.W.K.L.K.R.K.V.[SCCN[*:1]]}$$$$V2.0) | 450 | –
3 | CC(C)C[C@H](NC(=O)CN)C(=O)N[C@@H](Cc1c[nH]c2ccccc12)C(=O)N[C@@H](CCCNC(=N)N)C(=O)N[C@@H](C)C(=O)N[C@@H](CC(C)C)C(=O)N[C@@H](Cc1c[nH]c2ccccc12)C(=O)N[C@@H](CCCNC(=N)N)C(=O)NCC(=O)N[C@@H](CC(C)C)C(=O)N[C@@H](CCCNC(=N)N)C(=O)N[C@@H](CO)C(=O)N[C@@H](CC(C)C)C(=O)N[C@@H](Cc1c[nH]c2ccccc12)C(=O)N[C@@H](CCCCN)C(=O)N[C@@H](CC(C)C)C(=O)N[C@@H](CCCCN)C(=O)N[C@@H](CCCNC(=N)N)C(=O)N[C@@H](CCCCN)C(=O)N[C@H](C(=O)NCCS)C(C)C [CADY-1d] (HELM PEPTIDE1{G.L.W.R.A.L.W.R.G.L.R.S.L.W.K.L.K.R.K.V.[SCCN[*:1]]}$$$$V2.0) | 500 | –
4 | CC(C)C[C@H](NC(=O)CN)C(=O)N[C@@H](Cc1c[nH]c2ccccc12)C(=O)N[C@@H](CCCNC(=N)N)C(=O)N[C@@H](C)C(=O)N[C@@H](CC(C)C)C(=O)N[C@@H](Cc1c[nH]c2ccccc12)C(=O)N[C@@H](CCCNC(=N)N)C(=O)NCC(=O)N[C@@H](CC(C)C)C(=O)N[C@@H](CCCNC(=N)N)C(=O)N[C@@H](CO)C(=O)N[C@@H](CC(C)C)C(=O)N[C@@H](Cc1c[nH]c2ccccc12)C(=O)N[C@@H](CCCCN)C(=O)N[C@@H](CCCCN)C(=O)N[C@@H](CCCCN)C(=O)N[C@@H](CCCNC(=N)N)C(=O)N[C@@H](CCCCN)C(=O)N[C@H](C(=O)NCCS)C(C)C [CADY-1e] (HELM PEPTIDE1{G.L.W.R.A.L.W.R.G.L.R.S.L.W.K.K.K.R.K.V.[SCCN[*:1]]}$$$$V2.0) | 340 | –
5 | CC(=O)NCC(=O)N[C@@H](CC(C)C)C(=O)N[C@@H](Cc1c[nH]c2ccccc12)C(=O)N[C@@H](CCCNC(=N)N)C(=O)N[C@@H](C)C(=O)N[C@@H](CC(C)C)C(=O)N[C@@H](Cc1c[nH]c2ccccc12)C(=O)N[C@@H](CCCNC(=N)N)C(=O)N[C@@H](C)C(=O)N[C@@H](CC(C)C)C(=O)N[C@@H](Cc1c[nH]c2ccccc12)C(=O)N[C@@H](CCCNC(=N)N)C(=O)N[C@@H](CO)C(=O)N[C@@H](CC(C)C)C(=O)N[C@@H](Cc1c[nH]c2ccccc12)C(=O)N[C@@H](CCCCN)C(=O)N[C@@H](CC(C)C)C(=O)N[C@@H](CCCCN)C(=O)N[C@@H](Cc1c[nH]c2ccccc12)C(=O)N[C@@H](CCCCN)C(=O)N[C@H](C(=O)NCCS)C(C)C [CADY-2] (HELM PEPTIDE1{[ac].G.L.W.R.A.L.W.R.A.L.W.R.S.L.W.K.L.K.W.K.V.[SCCN[*:1]]}$$$$V2.0) | 230 | –
6 | CC(C)C[C@H](NC(=O)CN)C(=O)N[C@@H](Cc1c[nH]c2ccccc12)C(=O)N[C@@H](CCCNC(=N)N)C(=O)N[C@@H](C)C(=O)N[C@@H](CC(C)C)C(=O)N[C@@H](Cc1c[nH]c2ccccc12)C(=O)N[C@@H](CCCNC(=N)N)C(=O)N[C@@H](C)C(=O)N[C@@H](CC(C)C)C(=O)N[C@@H](Cc1c[nH]c2ccccc12)C(=O)N[C@@H](CCCNC(=N)N)C(=O)N[C@@H](CO)C(=O)N[C@@H](CC(C)C)C(=O)N[C@@H](Cc1c[nH]c2ccccc12)C(=O)N[C@@H](CCCCN)C(=O)N[C@@H](CO)C(=O)N[C@@H](CCCCN)C(=O)N[C@@H](CCCNC(=N)N)C(=O)N[C@@H](CCCCN)C(=O)N[C@H](C(=O)NCCS)C(C)C [CADY-2b] (HELM PEPTIDE1{G.L.W.R.A.L.W.R.A.L.W.R.S.L.W.K.S.K.R.K.V.[SCCN[*:1]]}$$$$V2.0) | 280 | –
7 | CC(C)C[C@H](NC(=O)CN)C(=O)N[C@@H](Cc1c[nH]c2ccccc12)C(=O)N[C@@H](CCCNC(=N)N)C(=O)N[C@@H](C)C(=O)N[C@@H](CC(C)C)C(=O)N[C@@H](Cc1c[nH]c2ccccc12)C(=O)N[C@@H](CCCNC(=N)N)C(=O)N[C@@H](C)C(=O)N[C@@H](CC(C)C)C(=O)N[C@@H](Cc1c[nH]c2ccccc12)C(=O)N[C@@H](CCCNC(=N)N)C(=O)N[C@@H](CO)C(=O)N[C@@H](CC(C)C)C(=O)N[C@@H](Cc1c[nH]c2ccccc12)C(=O)N[C@@H](CCCCN)C(=O)N[C@@H](CCCCN)C(=O)N[C@@H](CCCCN)C(=O)N[C@@H](CCCNC(=N)N)C(=O)N[C@@H](CCCCN)C(=O)N[C@H](C(=O)NCCS)C(C)C [CADY-2c] (HELM PEPTIDE1{G.L.W.R.A.L.W.R.A.L.W.R.S.L.W.K.K.K.R.K.V.[SCCN[*:1]]}$$$$V2.0) | 340 | –
8 | CC(C)C[C@H](NC(=O)CN)C(=O)N[C@@H](Cc1c[nH]c2ccccc12)C(=O)N[C@@H](CCCNC(=N)N)C(=O)N[C@@H](C)C(=O)N[C@@H](CC(C)C)C(=O)N[C@@H](Cc1c[nH]c2ccccc12)C(=O)N[C@@H](CCCNC(=N)N)C(=O)N[C@@H](CC(C)C)C(=O)N[C@@H](CC(C)C)C(=O)N[C@@H](CCCNC(=N)N)C(=O)N[C@@H](CO)C(=O)N[C@@H](CC(C)C)C(=O)N[C@@H](Cc1c[nH]c2ccccc12)C(=O)N[C@@H](CCCNC(=N)N)C(=O)N[C@@H](CC(C)C)C(=O)N[C@@H](CC(C)C)C(=O)N[C@@H](Cc1c[nH]c2ccccc12)C(=O)N[C@@H](CO)C(=O)N[C@@H](CCC(N)=O)C(=O)N1CCC[C@H]1C(=O)N[C@@H](CCCCN)C(=O)N[C@@H](CCCCN)C(=O)N[C@@H](CCCCN)C(=O)N[C@@H](CCCNC(=N)N)C(=O)N[C@@H](CCCCN)C(=O)N[C@H](C(=O)NCCS)C(C)C [CADY-2e] (HELM PEPTIDE1{G.L.W.R.A.L.W.R.L.L.R.S.L.W.R.L.L.W.S.Q.P.K.K.K.R.K.V.[SCCN[*:1]]}$$$$V2.0) | 430 | –
9 | CC(=O)NCC(=O)N[C@@H](CC(C)C)C(=O)N[C@@H](Cc1c[nH]c2ccccc12)C(=O)N[C@@H](CCCNC(=N)N)C(=O)N[C@@H](C)C(=O)N[C@@H](CC(C)C)C(=O)N[C@@H](Cc1c[nH]c2ccccc12)C(=O)N[C@@H](CCCNC(=N)N)C(=O)N[C@@H](CC(C)C)C(=O)N[C@@H](CC(C)C)C(=O)N[C@@H](CCCNC(=N)N)C(=O)N[C@@H](CO)C(=O)N[C@@H](CC(C)C)C(=O)N[C@@H](Cc1c[nH]c2ccccc12)C(=O)N[C@@H](CCCNC(=N)N)C(=O)N[C@@H](CC(C)C)C(=O)N[C@@H](CC(C)C)C(=O)N[C@@H](Cc1c[nH]c2ccccc12)C(=O)N[C@@H](CCCCN)C(=O)N[C@@H](C)C(=O)NCCSS[C@H]1CC[C@@]2(C)C(=CC[C@H]3[C@@H]4CC[C@H]([C@H](C)CCCC(C)C)[C@@]4(C)CC[C@@H]32)C1 [CADY-S2] (HELM PEPTIDE1{[ac].G.L.W.R.A.L.W.R.L.L.R.S.L.W.R.L.L.W.K.A.[CC(C)CCC[C@@H](C)[C@H]1CC[C@H]2[C@@H]3CC=C4C[C@@H](SSCCN[*:1])CC[C@]4(C)[C@H]3CC[C@]12C]}$$$$V2.0; N-terminus assumed) | – | EC50 (HS-68 and Hela cells; 12 h): 250 µM
10 | WEAALAEALAEALAEHLAEALAEALEALAA [GALA, reference compound] | – | toxicity (HS-68 and Hela cells): > 70%
11 | WEAKLAKALAKALAKHLAKALAKALKACEA [KALA, reference compound] | – | toxicity (HS-68 and Hela cells): > 70%
12 | Ac-GLWRALWRALWRSLWKLKWKV-Cysteamide [CADY-2 (Ac-…-Cya)] | – | Kd [1]: 19 nM; ratio at saturation (cargo/CADY molar ratio) [1]: 0.05

From patent EP1795539B1, “Cell penetrating peptides for intracellular delivery of molecules” (Centre National de la Recherche Scientifique, priority 2005, dated 2007)
